Legend:
[1] = tested on: NF1 deficient cells compared to NF1 wild type cells; test: Bafilomycin A1 dose response curve; format: cell-based; details: representative of two replicates
Description: This graph is representative of two replicates.

[2] = tested on: p62 and LC3B protein expression in U87-MG cells; test: Western blot of autophagy markers p62 and LC3B; format: cell-based, human; details: U87-MG, Western blot, 2 μM Y102, 50 μM HCQ
Description: Ras dysregulated tumors depend on autophagy to remove damaged mitochondria and allow for their survival. […] LC3B I is lipidated to form LC3B II following induction of autophagy. LC3B II is recruited and subsequently integrated into the autophagosome. p62 functions as an adaptor protein in autophagy by binding to both ubiquitin-labeled damaged cargo such as protein aggregates or mitochondria and LC3B II to facilitate cargo uptake into the autophagosome. Degradation of the cargo occurs when the autophagosome fuses with the lysosome; when autophagy is inhibited with hydroxychloroquine (HCQ), a drug that prevents acidification of the lysosome, both LC3B II and p62 accumulate as derogation of the autophagosome is prevented, making them valuable markers of autophagic flux.
The data for FIG. 4 was obtained as follows: U87-MG cells were plated in 6-well plates at a concentration of 500,000 cells/well and allowed to adhere overnight. Cells were treated for 12 h with either DMSO or 2 μM Y102, followed by an additional 12 h co-treatment with or without 50 μM HCQ. Following treatment, cells were harvested using 0.25% trypsin, rinsed with PBS, and lysed with 75 μL modified RIPA buffer (50 mM NaCl, 1% v/v nonidet P40, 0.5% w/v sodium deoxycholate, 0.05% w/v sodium dodecyl sulfate, 50 mM Tris pH 8.0) containing 1 mM NaVO4, 1 mM NaF, 1 mM phenylmethylsulfonyl fluoride, 0.1 μg/mL leupeptin, 100 μM benzamidine HCl, 1 μM aprotinin, 0.1 μg/mL soybean trypsin inhibitor, 0.1 μg/mL pepstatin, and 0.1 μg/mL antipain. Protein was quantified using a BCA assay kit (Pierce). 40 μg of protein prepared in 1× Laemmli sample buffer (50 mM Tris pH 6.8, 0.02% w/v bromophenol blue, 2% w/v sodium dodecyl sulfate, 10% v/v glycerol, 1% v/v beta-mercaptoethanol, 12.5 mM EDTA) was separated on a 4-15% polyacrylamide gel using sodium dodecyl sulfate-polyacrylamide gel electrophoresis. Protein was transferred to nitrocellulose membrane, blocked in 5% nonfat milk in TBST, and probed with primary antibodies anti-LC3BI/II (Cell Signaling, 1:1000, overnight at 4° C.), anti-p62/SQSTM-1 D-3 (Santa Cruz, 1:1000, 1 h at room temperature), or anti-α-tubulin B-1-2-5 (Santa Cruz, 1:10000, 1 h at room temperature) in 2% nonfat milk in TBST. Blots were incubated in 1:20,000 anti-rabbit HRP or 1:10,000 anti-mouse HRP secondary antibodies diluted in 2% nonfat milk in TBST for 1 h at room temperature. Film was exposed to standard ECL (Pierce)-coated blots and developed using a standard film processor.

| Compound | sensitivity of NF1 deficient vs NF1 wild type cells [1] | p62 accumulation (autophagy marker) ([2]; 24 hours) | LC3B I/II conversion (LC3B II accumulation) ([2]; single agent) |
| --- | --- | --- | --- |
| CO/C1=C\C(C)=C\[C@@H](C)[C@@H](O)[C@@H](C)C/C(C)=C/C=C/[C@H](OC)[C@@H]([C@@H](C)[C@@H](O)[C@H](C)[C@@]2(O)C[C@@H](O)[C@H](C)[C@@H](C(C)C)O2)OC1=O [Bafilomycin A1] | selectively sensitive |  |  |
| CCN(CCO)CCCC(C)Nc1ccnc2cc(Cl)ccc12 (stereo not drawn) [HCQ, hydroxychloroquine, reference compound] |  | accumulation of p62 | LC3B I/II conversion as seen |

— patent US9873705B2, “Vinylogous thioester compounds and methods of use” (THE TRUSTEES OF DARTMOUTH COLLEGE, priority 2015, dated 2018)
